Results on 18 molecules are retold here after patent EP1377579B1 (Aventis Pharmaceuticals Inc., priority 2000, dated 2002).

Assay [1] addresses cdk1/cyclin B (Homo sapiens, UniProt P06493). Nature of the assay: Cyclin-dependent kinase assay, cdk1/cyclin B. The conditions noted are these: CDK1 IC50, nM, Histone H1, 10 µM ATP.
Assay [2] addresses cdk4/cyclin D1 (Homo sapiens, UniProt P11802). Description: Cyclin-dependent kinase assay, cdk4/cyclin D1. The class given is biochemical. The following applies: cyclin D1/cdk4; GST-pRb substrate, 10 µM ATP.
The test system of assay [3] is MDA-MB-435. Description: In vitro proliferation assay (MTT), MDA-MB-435. Type of assay: cell-based, human. The following applies: value (SD, n) where given, read-out: MB-435 Breast (IC50 µM). The method in brief: (§1)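 MTT viability, 3 d compound treatment; seeding 1000–2500 cells/well, overnight attachment; formazan in DMSO, A570; IC50 fitted from raw absorbance.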
The target of assay [4] is cdk2/cyclin E (Homo sapiens, UniProt P24941). Description: Cyclin-dependent kinase assay, cdk2/cyclin E. The conditions noted are these: CDK2 IC50, nM, GST-pRb substrate, 10 µM ATP.
Assay [5] concerns PC-3. Description: In vitro proliferation assay (MTT), PC-3. The class given is cell-based, human. The following applies: value (SD, n) where given, read-out: PC-3 Prostate (IC50 µM). The method in brief: as §1
The mark [6] stands for this setting: Homo sapiens, MDA-MB-435, MTT assay.

Each structure is given as a SMILES string. Counter-ions that a name gives are not always drawn. Like-named read-outs stand apart in the source and are kept apart here. Some results are limits rather than exact numbers.

Sequence of cdk4/cyclin D1 (P11802 whole entry): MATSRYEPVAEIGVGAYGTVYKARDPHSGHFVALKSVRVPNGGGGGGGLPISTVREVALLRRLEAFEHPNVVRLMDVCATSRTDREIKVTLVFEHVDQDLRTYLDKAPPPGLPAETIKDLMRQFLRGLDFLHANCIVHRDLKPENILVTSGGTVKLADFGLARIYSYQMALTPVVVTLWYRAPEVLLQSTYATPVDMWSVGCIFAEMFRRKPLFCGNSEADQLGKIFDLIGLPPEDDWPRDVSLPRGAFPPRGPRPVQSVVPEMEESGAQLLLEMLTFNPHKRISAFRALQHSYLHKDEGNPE
Sequence of cdk4/cyclin D1 (P24385 whole entry partner): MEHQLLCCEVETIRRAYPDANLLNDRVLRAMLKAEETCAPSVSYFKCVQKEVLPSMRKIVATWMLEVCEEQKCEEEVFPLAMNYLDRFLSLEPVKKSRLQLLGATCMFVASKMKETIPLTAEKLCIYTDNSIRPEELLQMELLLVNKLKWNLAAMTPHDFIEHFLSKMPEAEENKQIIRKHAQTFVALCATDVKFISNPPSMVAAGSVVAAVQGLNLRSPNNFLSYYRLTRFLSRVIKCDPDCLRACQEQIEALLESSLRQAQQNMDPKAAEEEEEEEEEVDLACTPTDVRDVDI
Sequence of cdk1/cyclin B (P06493 whole entry): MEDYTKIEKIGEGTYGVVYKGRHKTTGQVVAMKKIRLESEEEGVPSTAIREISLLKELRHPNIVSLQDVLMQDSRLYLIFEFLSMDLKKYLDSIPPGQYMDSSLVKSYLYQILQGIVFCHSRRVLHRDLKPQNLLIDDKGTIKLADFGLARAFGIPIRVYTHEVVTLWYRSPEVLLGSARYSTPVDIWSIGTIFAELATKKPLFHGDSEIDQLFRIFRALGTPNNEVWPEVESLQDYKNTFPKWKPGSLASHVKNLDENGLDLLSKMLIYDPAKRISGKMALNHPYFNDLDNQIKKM
Sequence of cdk1/cyclin B (P14635 whole entry partner): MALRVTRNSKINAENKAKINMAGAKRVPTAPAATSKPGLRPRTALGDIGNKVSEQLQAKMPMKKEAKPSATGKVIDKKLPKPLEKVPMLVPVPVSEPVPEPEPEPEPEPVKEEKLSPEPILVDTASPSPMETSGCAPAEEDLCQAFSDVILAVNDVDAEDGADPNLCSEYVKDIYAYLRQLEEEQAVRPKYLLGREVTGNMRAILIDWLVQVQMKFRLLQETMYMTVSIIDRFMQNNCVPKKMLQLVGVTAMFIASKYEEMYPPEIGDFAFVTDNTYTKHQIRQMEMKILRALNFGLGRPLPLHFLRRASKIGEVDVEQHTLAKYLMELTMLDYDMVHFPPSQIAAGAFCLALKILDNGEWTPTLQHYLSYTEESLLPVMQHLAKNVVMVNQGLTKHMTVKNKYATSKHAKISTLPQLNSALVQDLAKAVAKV

For `N[C@H]1CC[C@H](Nc2nc(NC3CCN(C(=O)c4cccc5c4-c4ccccc4C5=O)CC3)c3ncn(C4CCCC4)c3n2)CC1` [compound 66, trans-4-(1-{4-[2-(4-Amino-cyclohexylamino)-9-cyclopentyl-9H-purin-6-ylamino]-piperidin-1-yl}-methanoyl)-fluoren-9-one], the half-inhibitory concentration (IC50) in assay [1] was 234 nM; in assay [2] it was 1720 nM; in assay [3] (setting [6]), 1.66 µM; in assay [4], 325 nM; in assay [5] (Homo sapiens, PC-3, MTT assay) it was 1.93 µM.

In the case of `N[C@H]1CC[C@H](Nc2nc(NC3CCN(C(=O)c4cccnc4)CC3)c3ncn(C4CCCC4)c3n2)CC1` [compound 67, trans-1-{4-[2-(4-Amino-cyclohexylamino)-9-cyclopentyl-9H-purin-6-ylamino]-piperidin-1-yl}-1-pyridin-3-yl-methanone], the IC50 in assay [1] came out at 824 nM; in assay [2], 3150 nM; in assay [3] (setting [6]), 50 µM; in assay [4], 441 nM; in assay [5] (Homo sapiens, PC-3, MTT assay) it was 38 µM.

On to `N[C@H]1CC[C@H](Nc2nc(NC3CCN(C(=O)c4ccncc4)CC3)c3ncn(C4CCCC4)c3n2)CC1` [compound 68, trans-1-{4-[2-(4-Amino-cyclohexylamino)-9-cyclopentyl-9H-purin-6-ylamino]-piperidin-1-yl}-1-pyridin-4-yl-methanone], for which the half-maximal inhibitory concentration (IC50) in assay [1] was determined as 136 nM; in assay [2], 1440 nM; in assay [3] (setting [6]), 21 µM; in assay [4] it was 84 nM; in assay [5] (Homo sapiens, PC-3, MTT assay), 16 µM.

Turning to `N[C@H]1CC[C@H](Nc2nc(NC3CCN(C(=O)c4cc(C(F)(F)F)ccc4F)CC3)c3ncn(C4CCCC4)c3n2)CC1` [compound 69, trans-1-{4-[2-(4-Amino-cyclohexylamino)-9-cyclopentyl-9H-purin-6-ylamino]-piperidin-1-yl}-1-(2-fluoro-5-trifluoromethyl-phenyl)-methanone], the IC50 in assay [1] is 48 nM; in assay [2] it was 852 nM; in assay [3] (setting [6]), 0.48 µM; in assay [4] it was 84 nM; in assay [5] (Homo sapiens, PC-3, MTT assay) it was 0.35 µM.

As to `Cc1ccccc1C(=O)N1CCC(Nc2nc(N[C@H]3CC[C@H](N)CC3)nc3c2ncn3C2CCCC2)CC1` [compound 70, trans-1-{4-[2-(4-Amino-cyclohexylamino)-9-cyclopentyl-9H-purin-6-ylamino]-piperidin-1-yl}-1-(2-methyl-phenyl)-methanone], the IC50 in assay [1] is 277 nM; in assay [2] it was 4510 nM; in assay [3] (setting [6]), 4.6 µM; in assay [4], 430 nM; in assay [5] (Homo sapiens, PC-3, MTT assay) it was 4.4 µM.

Turning to `N[C@H]1CC[C@H](Nc2nc(NC3CCN(C(=O)c4cccc(Br)c4)CC3)c3ncn(C4CCCC4)c3n2)CC1` [compound 71, trans-1-{4-[2-(4-Amino-cyclohexylamino)-9-cyclopentyl-9H-purin-6-ylamino]-piperidin-1-yl}-1-(3-bromophenyl)-methanone], the IC50 was found to be 53 nM in assay [1]; 698 nM in assay [2]; 0.64 µM in assay [3] (setting [6]); 91 nM in assay [4]; 0.61 µM in assay [5] (Homo sapiens, PC-3, MTT assay).

`N[C@H]1CC[C@H](Nc2nc(NC3CCN(C(=O)c4cccc(Cl)c4)CC3)c3ncn(C4CCCC4)c3n2)CC1` [compound 72, trans-1-{4-[2-(4-Amino-cyclohexylamino)-9-cyclopentyl-9H-purin-6-ylamino]-piperidin-1-yl}-1-(3-chloro-phenyl)-methanone]: the IC50 in assay [1] was found to be 51 nM; in assay [2], 864 nM; in assay [3] (MTT assay), 0.03 µM; in assay [4], 89 nM; in assay [5] (MTT assay) it was 0.03 µM.

As to `Cc1cccc(C(=O)N2CCC(Nc3nc(N[C@H]4CC[C@H](N)CC4)nc4c3ncn4C3CCCC3)CC2)c1` [compound 73, trans-1-{4-[2-(4-Amino-cyclohexylamino)-9-cyclopentyl-9H-purin-6-ylamino]-piperidin-1-yl}-1-(3-methyl-phenyl)-methanone], the IC50 in assay [1] stood at 100 nM; in assay [2] it was 410 nM; in assay [3] (setting [6]), 1.31 µM; in assay [4] it was 73 nM; in assay [5] (Homo sapiens, PC-3, MTT assay), 1.35 µM.

Take `N[C@H]1CC[C@H](Nc2nc(NC3CCN(C(=O)c4ccc(Br)cc4)CC3)c3ncn(C4CCCC4)c3n2)CC1` [compound 74, trans-1-{4-[2-(4-Amino-cyclohexylamino)-9-cyclopentyl-9H-purin-6-ylamino]-piperidin-1-yl}-1-(4-bromo-phenyl)-methanone]: the IC50 in assay [1] turned out to be 62 nM; in assay [2] it was 560 nM; in assay [3] (setting [6]), 1.07 µM; in assay [4], 239 nM; in assay [5] (Homo sapiens, PC-3, MTT assay), 1.25 µM.

For the molecule `N[C@H]1CC[C@H](Nc2nc(NC3CCN(C(=O)c4ccc(Cl)cc4)CC3)c3ncn(C4CCCC4)c3n2)CC1` [compound 75, trans-1-{4-[2-(4-Amino-cyclohexylamino)-9-cyclopentyl-9H-purin-6-ylamino]-piperidin-1-yl}-1-(4-chloro-phenyl)-methanone], the IC50 in assay [1] came to 71 nM; in assay [2], 801 nM; in assay [3] (setting [6]) it was 1.38 µM; in assay [4], 58 nM; in assay [5] (Homo sapiens, PC-3, MTT assay), 1.7 µM.

Regarding `N[C@H]1CC[C@H](Nc2nc(NC3CCN(C(=O)c4ccc(I)cc4)CC3)c3ncn(C4CCCC4)c3n2)CC1` [compound 76, trans-1-{4-[2-(4-Amino-cyclohexylamino)-9-cyclopentyl-9H-purin-6-ylamino]-piperidin-1-yl}-1-(4-iodo-phenyl)-methanone], the IC50 stood at 57 nM in assay [1]; 787 nM in assay [2]; 1.47 µM in assay [3] (setting [6]); 179 nM in assay [4]; 1.04 µM in assay [5] (Homo sapiens, PC-3, MTT assay).

Turning to `Cc1ccc(C(=O)N2CCC(Nc3nc(N[C@H]4CC[C@H](N)CC4)nc4c3ncn4C3CCCC3)CC2)cc1` [compound 77, trans-1-{4-[2-(4-Amino-cyclohexylamino)-9-cyclopentyl-9H-purin-6-ylamino]-piperidin-1-yl}-1-(4-methyl-phenyl)-methanone], the half-maximal inhibitory concentration (IC50) in assay [1] was found to be 100 nM; in assay [2] it was 606 nM; in assay [3] (setting [6]) it was 1.03 µM; in assay [4], 71 nM; in assay [5] (Homo sapiens, PC-3, MTT assay), 1.19 µM.

On to `N[C@H]1CC[C@H](Nc2nc(NC3CCN(C(=O)c4ccc(Cl)cc4Cl)CC3)c3ncn(C4CCCC4)c3n2)CC1` [compound 78, trans-1-{4-[2-(4-Amino-cyclohexylamino)-9-cyclopentyl-9H-purin-6-ylamino]-piperidin-1-yl}-1-(2,4-dichloro-phenyl)-methanone], for which the half-maximal inhibitory concentration (IC50) in assay [1] amounted to 101 nM; in assay [2] it was 523 nM; in assay [3] (setting [6]) it was 1.56 µM; in assay [4], 155 nM; in assay [5] (Homo sapiens, PC-3, MTT assay) it was 1.53 µM.

`N[C@H]1CC[C@H](Nc2nc(NC3CCN(C(=O)c4cc(Cl)cc(Cl)c4)CC3)c3ncn(C4CCCC4)c3n2)CC1` [compound 79, trans-1-{4-[2-(4-Amino-cyclohexylamino)-9-cyclopentyl-9H-purin-6-ylamino]-piperidin-1-yl}-1-(3,5-dichloro-phenyl)-methanone]: the IC50 in assay [1] worked out at 44 nM; in assay [2], 483 nM; in assay [3] (setting [6]), 0.25 µM; in assay [4], 73 nM; in assay [5] (Homo sapiens, PC-3, MTT assay) it was 0.27 µM.

Regarding `CC(C)n1cnc2c(NC3CCN(C(=O)COc4ccccc4)CC3)nc(N[C@H]3CC[C@H](N)CC3)nc21` [compound 80, trans-1-{4-[2-(4-Amino-cyclohexylamino)-9-isopropyl-9H-purin-6-ylamino]-piperidin-1-yl}-2-phenoxy-ethanone dihydrochloride], the IC50 in assay [1] was 244 nM; in assay [2], 8100 nM; in assay [3] (setting [6]), more than 50 µM; in assay [4], 39 nM; in assay [5] (Homo sapiens, PC-3, MTT assay) it was more than 50 µM.

With `CCOC(=O)N1CCC(Nc2nc(N[C@H]3CC[C@H](N)CC3)nc3c2ncn3C(C)C)CC1` [compound 104, trans-4-[2-(4-Amino-cyclohexylamino)-9-isopropyl-9H-purin-6-ylamino]-piperidine-1-carboxylic acid ethyl ester dihydrochloride], the IC50 in assay [1] turned out to be 750 nM; in assay [2], 8000 nM; in assay [3] (setting [6]) it was 2.27 µM; in assay [4], 731 nM; in assay [5] (Homo sapiens, PC-3, MTT assay) it was 1.21 µM.

For `CC(=O)Nc1nc(C)c(S(=O)(=O)N2CCC(Nc3nc(N[C@H]4CC[C@H](N)CC4)nc4c3ncn4C3CCCC3)CC2)s1` [compound 113, trans-N-(5-{4-[2-(4-Amino-cyclohexylamino)-9-cyclopentyl-9H-purin-6-ylamino]-piperidine-1-sulfonyl}-4-methyl-thiazol-2-yl)-acetamide dihydrochloride], the half-inhibitory concentration (IC50) in assay [1] came to 18 nM; in assay [2], 39 nM; in assay [3] (setting [6]) it was 6.54 µM; in assay [4] it was 7 nM; in assay [5] (Homo sapiens, PC-3, MTT assay), 5.89 µM.

As for `N[C@H]1CC[C@H](Nc2nc(NC3CCN(S(=O)(=O)c4ccc(Br)cc4)CC3)c3ncn(C4CCCC4)c3n2)CC1` [compound 114, trans-N^2-(4-Amino-cyclohexyl)-9-cyclopentyl-N^6-[1-(4-bromo-benzenesulfonyl)-piperidin-4-yl]-9H-purine-2,6-diamine dihydrochloride], the half-inhibitory concentration (IC50) in assay [1] was found to be 5 nM; in assay [2], 80 nM; in assay [3] (setting [6]) it was 0.33 µM; in assay [4], 15 nM; in assay [5] (Homo sapiens, PC-3, MTT assay) it was 0.48 µM.

One may read the IC50 as the concentration at which inhibition is half-maximal.
